From publication PMC8955853, “New Sorbicillinoids with Tea Pathogenic Fungus Inhibitory Effect from Marine-Derived Fungus Hypocrea jecorina H8” (Marine Drugs, 2022)
Converted amounts (≈) assume the structure as drawn. “Also recorded” adds a separate entry of the source. Like-named read-outs stand apart in the source and are kept apart here.

Columns and labels:
zebrafish embryos = experiment: Zebrafish embryotoxicity and developmental toxicity assay; type: in vivo; settings: for change of effect on zebrafish embryo mortality when treatment prolonged to 72 h: 72 h versus 24 h (Figure 4b); for effects on mortality rate and malformation of zebrafish: 0.625 μM for 24 h and 10 μM for 72 h (Figure 4c)
Method: Figure 4 Embryotoxicity and developmental toxicity assay; 15 zebrafish embryos per condition were exposed to compounds at the concentrations of 10, 5, 2.5, 1.25, and 0.625 μM, and 0.1% DMSO was used as blank control. (a) The mortality rate of 24 embryo treated with compounds; (b) The mortality rate of 72 embryo treated with compounds; (c) The impact on the malformation of zebrafish treated with compounds) The statistics of 24 and 72 h mortality rate; © Morphology of 24 h embryo or 72 h zebrafish larvae treated with compounds or control.
Wild-type (AB strain) zebra fish (Danio rerio) were used in this test. Compounds 5, 6, 8, 9, and 10 were dissolved in DMSO (10 mM) and stored at −20 °C. Toxicity evaluations were analyzed regarding the anti-proliferative effects on embryos according to the literature. In brief, 15 zebrafish embryos per condition were exposed to compounds at the concentrations of 10, 5, 2.5, 1.25, and 0.625 μM, and 0.1% DMSO was used as the vehicle control. A Leica stereomicroscope was used to observe the embryos every 24 h.

Pestalotiopsis theae = experiment: Antifungal activity assay, growth inhibition of tea pathogenic fungus; type: cell-based; settings: for IC50: Pseudopestalotiopsis theae, read-out: ED50, antifungal activity against Pestalotiopsis theae; for fold stronger anti-tea pathogenic fungus effect than hexaconazole: compared to positive control hexaconazole (24.25 ± 1.57 µg/mL)
Method: Compounds 1 to 11 were evaluated for antifungal activities by a paper disc inhibition assay.
Initial evaluations of the antifungal activity of the purified compounds were conducted against tea pathogenic fungus P. theae in six-well microplates as described by Xia Yan with certain modifications. The final concentrations of each compound in the wells were 80, 40, 20, 10, 5, and 2.5 µg/mL (two-fold dilutions). DMSO and hexaconazole were used as a blank control and positive control, respectively. The ED50 (μg/mL) values were calculated statistically using Probit analyses.

[1] = tested at 80, 40, 20, 10, 5 and 2.5 µg/mL, Probit analysis

Row | Molecule | change of effect on zebrafish embryo mortality when treatment prolonged to 72 h (zebrafish embryos) | IC50 (Pestalotiopsis theae; [1]) [µg/mL] | other results
1 | C/C=C/CCC(=O)c1cc(C)c(O)c(C)c1O [Compound 6, 2′,3′-dihydrosorbicillin] | did not change greatly | 2.04 ± 1.24 (≈ 8.71 µM) | 
2 | CC=CC=CC(O)=C1CC(C)(O)C2(O)OC3(C)C(O)=C(C)C(=O)C(=C(O)C=CC=CC)C3C2(C)C1=O (stereo not drawn) [Compound 5, isobisvertinol A] | did not change greatly | 9.13 ± 1.25 (≈ 18.3 µM) | effects on mortality rate and malformation of zebrafish (zebrafish embryos): greater effects than other compounds; fold stronger anti-tea pathogenic fungus effect than hexaconazole (Pestalotiopsis theae): ~3 fold
3 | CCCCC(O)(Cn1cncn1)c1ccc(Cl)cc1Cl (stereo not drawn) [hexaconazole, reference compound] |  | 24.2 ± 1.57 (≈ 77.2 µM) | 
4 | C/C=C/C=C/C(=O)c1cc(C)c(O)cc1O [Compound 7, 6-demethylsorbicillin] |  | > 100 | 
5 | C/C=C/C=C/C(=O)c1cc(C)c(O)c(C)c1O [Compound 8, sorbicillin] |  | 18.2 ± 1.29 (≈ 78.4 µM) | zebrafish embryos killed (zebrafish embryos; 0.625 μM for 24 h): more than 50%; effects on mortality rate and malformation of zebrafish (zebrafish embryos): greater effects than other compounds; mortality rate of zebrafish embryo (zebrafish embryos; 0.625 μM, 72 h (Figure 4b)): ~60%; zebrafish embryos killed (zebrafish embryos; 10 μM for 72 h): more than 50%
6 | CC=CC=CC(O)=C1C(=O)C2(C)C3C(=C(O)CC(O)C=CC)C(=O)C4(C)C1C1(C)OC4(O)C3(C)OC12O (stereo not drawn) [Compound 3, 7,7′,9′-hydroxy-trichodimerol] |  |  | IC50 (Pestalotiopsis theae): > 100 µg/mL
7 | CCC12C(=O)OC(C)(C(=O)C(C)=C1CC(C)=O)C2CC(=O)C=CC=CCO (stereo not drawn) [Compound 1, trichodermolide C] |  | > 100 | 
8 | trichodimerol [Compound 10] | did not change greatly |  | toxicity to zebrafish eggs, embryos or larvae (overall, in words) (zebrafish embryos; 10, 5, 2.5, 1.25 and 0.625 μM, observed every 24 h): low toxicity; also recorded: much lower toxicity; ED50, antifungal activity against Pestalotiopsis theae (Pestalotiopsis theae; [1]): 4.68 ± 1.44 µg/mL
9 | Cc1cc(C(=O)CC(O)C(O)C(C)O)c(O)c(C)c1O (stereo not drawn) [Compound 4, 1-(2,4-dihydroxy-3,5-dimethylphenyl)-3,4,5-trihydroxyhexan-1-one] |  | > 100 | 
10 | Cc1cc(C(=O)/C=C/C=C/CO)c(O)c(C)c1O [Compound 9, (2E,4E)-1-(2,4-dihydroxy-3,5-dimethylphenyl)-6-hydroxyhexa-2,4-dien-1-one] | did not change greatly | 1.83 ± 1.37 (≈ 7.37 µM) | fold stronger anti-tea pathogenic fungus effect than hexaconazole (Pestalotiopsis theae): 13 fold
11 | C/C=C/C=C/C(O)=C1\C[C@](C)(O)[C@]2(O)O[C@]3(C)C(O)=C(C)C(=O)/C(=C(O)/C=C/C=C/C)[C@@H]3[C@]2(C)C1=O [Compound 11, bisvertinol] |  | > 100 | 
12 | CC=CC=CC(O)CC1C2(C)OC(=O)C1(CC)C(CC(C)O)=C(C)C2=O (stereo not drawn) [Compound 2, trichodermolide D] |  | > 100 | 
